Data published in PubChem BioAssay AID2060887 (Molecular Pharmacology Branch, DTP, NCI, 2025).

Test system: 782815-120-R-J1-PDC complex spheroid viability
Assay: Anticancer human tumor 782815-120-R-J1-PDC patient-derived colon adenocarcinoma cell line growth inhibition [RAS]
Details: for IC50: curve of first compound; for viability, T/C: stronger effect = lower value
Method in brief: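 Multi-cell-type spheroids: tumor cells plus HUVEC endothelial cells and mesenchymal stem cells. RAS-pathway inhibitors were combined with targeted agents, each dosed in half-log steps down from clinical Cmax, or from 10 microM when Cmax was unknown.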

[1] = second compound 0.00316 µM, first compound 0.0316 µM
[2] = second compound 0.00316 µM, first compound 0.1 µM
[3] = second compound 0.00316 µM, first compound 0.316 µM
[4] = second compound 0.00316 µM, first compound 1 µM
[5] = second compound 0.01 µM, first compound 0.0316 µM
[6] = second compound 0.01 µM, first compound 0.1 µM
[7] = second compound 0.01 µM, first compound 0.316 µM
[8] = second compound 0.01 µM, first compound 1 µM
[9] = second compound 0.0316 µM, first compound 0.0316 µM
[10] = second compound 0.0316 µM, first compound 0.1 µM
[11] = second compound 0.0316 µM, first compound 0.316 µM
[12] = second compound 0.0316 µM, first compound 1 µM
[13] = second compound 0.1 µM, first compound 0.0316 µM
[14] = second compound 0.1 µM, first compound 0.1 µM
[15] = second compound 0.1 µM, first compound 0.316 µM
[16] = second compound 0.1 µM, first compound 1 µM
[17] = second compound 0.316 µM, first compound 0.0316 µM
[18] = second compound 0.316 µM, first compound 0.1 µM
[19] = second compound 0.316 µM, first compound 0.316 µM
[20] = second compound 0.316 µM, first compound 1 µM
[21] = second compound 1 µM, first compound 0.0316 µM
[22] = second compound 1 µM, first compound 0.1 µM
[23] = second compound 1 µM, first compound 0.316 µM
[24] = second compound 1 µM, first compound 1 µM
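Note: spheroids exposed to compounds for 7 days before reading.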
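Throughout, for viability, T/C: 100% = DMSO vehicle control viability.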

Q: What does the source list for `C[C@@H](NC(=O)c1ncnc(N)c1Cl)c1ncc(C(=O)Nc2cc(C(F)(F)F)c(Cl)cn2)s1` + C=CC(=O)N1CCN(c2nc(OCC3CCCN3C)nc3c(F)c(-c4nc(N)cc(C)c4C(F)(F)F)c(Cl)cc23)C(C)C1?
A: IC50 (second compound 0.00316 µM): > 10 µM; IC50 (second compound 0.01 µM): > 10 µM; IC50 (second compound 0.0316 µM): > 10 µM; IC50 (second compound 0.1 µM): > 10 µM; IC50 (second compound 0.316 µM): > 10 µM; IC50 (second compound 1 µM): > 10 µM; viability, T/C [1]: 100%; viability, T/C [2]: 106%; viability, T/C [3]: 97%; viability, T/C [4]: 86%; viability, T/C (second compound 0.00316 µM, first compound 3.16 µM): 83.8%; viability, T/C (second compound 0.00316 µM, first compound 10 µM): 72.1%; viability, T/C [5]: 104%; viability, T/C [6]: 105%; viability, T/C [7]: 104%; viability, T/C [8]: 88.6%; viability, T/C (second compound 0.01 µM, first compound 3.16 µM): 80.8%; viability, T/C (second compound 0.01 µM, first compound 10 µM): 71.8%; viability, T/C [9]: 116%; viability, T/C [10]: 107%; viability, T/C [11]: 96.6%; viability, T/C [12]: 90%; viability, T/C (second compound 0.0316 µM, first compound 3.16 µM): 90.2%; viability, T/C (second compound 0.0316 µM, first compound 10 µM): 71.2%; viability, T/C [13]: 111%; viability, T/C [14]: 101%; viability, T/C [15]: 96.8%; viability, T/C [16]: 99.8%; viability, T/C (second compound 0.1 µM, first compound 3.16 µM): 89.9%; viability, T/C (second compound 0.1 µM, first compound 10 µM): 66.3%; viability, T/C [17]: 108%; viability, T/C [18]: 113%; viability, T/C [19]: 97.3%; viability, T/C [20]: 101%; viability, T/C (second compound 0.316 µM, first compound 3.16 µM): 85%; viability, T/C (second compound 0.316 µM, first compound 10 µM): 74.5%; viability, T/C [21]: 114%; viability, T/C [22]: 108%; viability, T/C [23]: 98.5%; viability, T/C [24]: 110%; viability, T/C (second compound 1 µM, first compound 3.16 µM): 92.6%; viability, T/C (second compound 1 µM, first compound 10 µM): 65.5%

Q: What does the source list for `O=C(c1ccc(F)c(F)c1Nc1ccc(I)cc1F)N1CC(O)([C@@H]2CCCCN2)C1` + C=CC(=O)N1CCN(c2nc(OCC3CCCN3C)nc3c(F)c(-c4nc(N)cc(C)c4C(F)(F)F)c(Cl)cc23)C(C)C1?
A: IC50 (second compound 0.00316 µM): 0.0745 µM; IC50 (second compound 0.01 µM): 0.0678 µM; IC50 (second compound 0.0316 µM): 0.0675 µM; IC50 (second compound 0.1 µM): 0.1 µM; IC50 (second compound 0.316 µM): 0.0838 µM; IC50 (second compound 1 µM): 0.0821 µM; viability, T/C (second compound 0.00316 µM, first compound 0.00316 µM): 91.2%; viability, T/C (second compound 0.00316 µM, first compound 0.01 µM): 87.7%; viability, T/C [1]: 64.6%; viability, T/C [2]: 44.3%; viability, T/C [3]: 21.8%; viability, T/C [4]: 3.64%; viability, T/C (second compound 0.01 µM, first compound 0.00316 µM): 93.1%; viability, T/C (second compound 0.01 µM, first compound 0.01 µM): 86.5%; viability, T/C [5]: 64.6%; viability, T/C [6]: 40.9%; viability, T/C [7]: 21.7%; viability, T/C [8]: 4.13%; viability, T/C (second compound 0.0316 µM, first compound 0.00316 µM): 99.3%; viability, T/C (second compound 0.0316 µM, first compound 0.01 µM): 79.5%; viability, T/C [9]: 64.2%; viability, T/C [10]: 46.3%; viability, T/C [11]: 19%; viability, T/C [12]: 4.19%; viability, T/C (second compound 0.1 µM, first compound 0.00316 µM): 84.1%; viability, T/C (second compound 0.1 µM, first compound 0.01 µM): 90.1%; viability, T/C [13]: 68.3%; viability, T/C [14]: 52.4%; viability, T/C [15]: 20.7%; viability, T/C [16]: 4.3%; viability, T/C (second compound 0.316 µM, first compound 0.00316 µM): 90.5%; viability, T/C (second compound 0.316 µM, first compound 0.01 µM): 88.5%; viability, T/C [17]: 66.2%; viability, T/C [18]: 47.7%; viability, T/C [19]: 22%; viability, T/C [20]: 4.23%; viability, T/C (second compound 1 µM, first compound 0.00316 µM): 88.9%; viability, T/C (second compound 1 µM, first compound 0.01 µM): 93.5%; viability, T/C [21]: 66.1%; viability, T/C [22]: 45.5%; viability, T/C [23]: 23.1%; viability, T/C [24]: 4.2%
